Among the test systems are Escherichia coli HB101; Escherichia coli ML-35; Acinetobacter junii RT-4; Bacillus megaterium Bm11; Escherichia coli D21; Saccharomyces cerevisiae; Staphylococcus capitis 1; Escherichia coli O157:H7; Vibrio cholerae non-O139; Vibrio cholerae non-O1.
Holding throughout (assay): ≥ marks a high value that may be exact or a test limit, other limits are often not marked, values filed in µg/mL are converted to µM
The subject of test [1] is Bacillus subtilis KCTC 1918.
Test [2] relates to Candida albicans TIMM 1768.
The subject of test [3] is Pseudomonas aeruginosa KCTC 1637.
The test system of test [4] is Saccharomyces cerevisiae KCTC 7296.
In test [5] the test system is Salmonella typhimurium KCTC 1926.
Test [6] deals with Staphylococcus epidermidis KCTC 3096.
Test [7] relates to Trichosporon beigelii KCTC 7707.
The test system of test [8] is Escherichia coli ATCC 25922.
Test [9] relates to Salmonella enterica subsp. enterica serovar Typhimurium ATCC 14028.
Test [10] has as its system Serratia marcescens ATCC 8100.
Test [11] has as its system Staphylococcus aureus ATCC 25923.
Test [12] deals with Acinetobacter baumannii ATCC 19606.
In test [13] the test system is Candida albicans ATCC 10231.
Test [14] concerns Enterococcus faecalis ATCC 29212.
Test [15] concerns Pseudomonas aeruginosa ATCC 15692.
The subject of test [16] is Pseudomonas aeruginosa ATCC 27853.
The subject of test [17] is Pseudomonas syringae pv. tabaci 1918NCPPB.
The test system of test [18] is Schizosaccharomyces pombe.
Test [19] relates to Staphylococcus aureus Cowan 1.
The test system of test [20] is Staphylococcus epidermidis ATCC 12228.
Test [21] has as its system Streptococcus pyogenes ATCC 21547.
Test [22] relates to Yersinia pseudotuberculosis YPIII.
For test [23], the system named is Corynebacterium glutamicum ATCC 13032.
Test [24] relates to Staphylococcus aureus ATCC 9144.
Test [25] deals with Salmonella enterica subsp. enterica serovar Typhi DMST 22842.

As a reminder, the MIC is the lowest concentration that inhibits growth of the organism.

Each structure is given as a SMILES string. In brackets after ≈: the same amount, converted by molar mass.

With `CC(C)C[C@H](NC(=O)[C@H](CCCCN)NC(=O)[C@H](CCCCN)NC(=O)[C@H](CC(C)C)NC(=O)[C@H](CC(C)C)NC(=O)[C@H](CCCCN)NC(=O)[C@H](CCCCN)NC(=O)[C@H](CC(C)C)NC(=O)[C@H](CC(C)C)NC(=O)[C@@H]1CCCN1C(=O)[C@H](CCCCN)NC(=O)[C@H](CC(C)C)NC(=O)[C@H](CCCCN)NC(=O)[C@H](Cc1c[nH]c2ccccc12)NC(=O)[C@@H](N)CCCCN)C(N)=O` [KWKLKPLLKKLLKKL], the MIC in test [1] was 3.1 µM (≈ 5.82 µg/mL); in test [2] it was 12.5 µM (≈ 23.5 µg/mL); in [3] it was 3.1 µM (≈ 5.82 µg/mL); in [4], 12.5 µM (≈ 23.5 µg/mL); in [5], 0.2 µM (≈ 0.375 µg/mL); in test [6], 1.6 µM (≈ 3 µg/mL). The MIC in test [7] worked out at 1.6 µM (≈ 3 µg/mL).
In the case of `CC[C@H](C)[C@H](NC(=O)[C@H](CCCN=C(N)N)NC(=O)[C@@H](N)CCCN=C(N)N)C(=O)N[C@@H](CCCN=C(N)N)C(=O)N1CCC[C@H]1C(=O)N[C@@H](CCCN=C(N)N)C(=O)N1CCC[C@H]1C(=O)N1CCC[C@H]1C(=O)N[C@@H](CCCN=C(N)N)C(=O)N[C@@H](CC(C)C)C(=O)N1CCC[C@H]1C(=O)N[C@@H](CCCN=C(N)N)C(=O)N1CCC[C@H]1C(=O)O` [RRIRPRPPRLPRP], the MIC in test [8] was above 128 µM; in the test on Escherichia coli HB101, at least 90.5 µM; in the test on Escherichia coli ML-35 it was at least 128 µM; in test [9] it was above 128 µM; in test [10], at least 128 µM; in [11], above 128 µM.
Turning to `CC(C)C[C@H](NC(=O)[C@H](CCCCN)NC(=O)[C@H](CC(C)C)NC(=O)[C@H](CCCCN)NC(=O)[C@H](CC(C)C)NC(=O)[C@@H]1CCCN1C(=O)[C@H](CCCCN)NC(=O)[C@H](CCCCN)NC(=O)[C@H](CC(C)C)NC(=O)[C@H](CC(C)C)NC(=O)[C@H](CCCCN)NC(=O)[C@H](CCCCN)NC(=O)[C@H](Cc1c[nH]c2ccccc12)NC(=O)[C@@H](N)CCCCN)C(N)=O` [KWKKLLKKPLKLKL], the MIC in test [1] turned out to be 3.1 µM (≈ 5.47 µg/mL); in test [2], 12.5 µM (≈ 22 µg/mL); in test [3], 3.1 µM (≈ 5.47 µg/mL); in test [4], 12.5 µM (≈ 22 µg/mL); in [5], 0.2 µM (≈ 0.353 µg/mL); in test [6], 3.1 µM (≈ 5.47 µg/mL). The compound also gave an MIC in test [7] of 3.1 µM (≈ 5.47 µg/mL).
As for `CC[C@H](C)[C@H](NC(=O)[C@H](CCCN=C(N)N)NC(=O)CNC(=O)[C@H](CC(C)C)NC(=O)[C@H](Cc1ccccc1)NC(=O)[C@H](CCCN=C(N)N)NC(=O)[C@H](CO)NC(=O)[C@H](Cc1ccccc1)NC(=O)[C@H](Cc1c[nH]c2ccccc12)NC(=O)[C@H](CCCN=C(N)N)NC(=O)[C@@H](NC(=O)[C@@H](N)Cc1ccccc1)C(C)C)C(=O)N[C@@H](CC(C)C)C(N)=O` [FVRWFSRFLGRIL], the MIC in [12] is 6 µM (≈ 10.2 µg/mL); with Acinetobacter junii RT-4, 12 µM (≈ 20.4 µg/mL); with Bacillus megaterium Bm11 it was 3 µM (≈ 5.09 µg/mL); in [13] it was 24 µM (≈ 40.7 µg/mL); in test [14] it was 24 µM (≈ 40.7 µg/mL); in test [8], 48 µM (≈ 81.4 µg/mL). The minimum inhibitory concentration (MIC) in the test with Escherichia coli D21 was 24 µM (≈ 40.7 µg/mL); in [15] it was 24 µM (≈ 40.7 µg/mL); in test [16], 24 µM (≈ 40.7 µg/mL); in [17], 6 µM (≈ 10.2 µg/mL); against Saccharomyces cerevisiae, 24 µM (≈ 40.7 µg/mL); in [18], 12 µM (≈ 20.4 µg/mL). The MIC in [11] is 6 µM (≈ 10.2 µg/mL); in test [19], 6 µM (≈ 10.2 µg/mL); against Staphylococcus capitis 1 it was 6 µM (≈ 10.2 µg/mL); in test [20] it was 6 µM (≈ 10.2 µg/mL); in test [21] it was 3 µM (≈ 5.09 µg/mL); in [22], 6 µM (≈ 10.2 µg/mL).
As to `CC[C@H](C)[C@H](NC(=O)[C@H](CCCN=C(N)N)NC(=O)[C@@H]1CCCN1C(=O)[C@@H]1CCCN1C(=O)[C@H](CC(C)C)NC(=O)[C@H](CCCN=C(N)N)NC(=O)[C@@H]1CCCN1C(=O)[C@@H]1CCCN1C(=O)[C@H](Cc1ccccc1)NC(=O)[C@H](Cc1ccccc1)NC(=O)[C@@H]1CCCN1C(=O)[C@@H]1CCCN1C(=O)[C@@H]1CCCN1C(=O)[C@H](CCCN=C(N)N)NC(=O)[C@@H]1CCCN1C(=O)[C@H](CCCN=C(N)N)NC(=O)[C@@H]1CCCN1C(=O)[C@H](CC(C)C)NC(=O)[C@H](Cc1ccc(O)cc1)NC(=O)[C@@H]1CCCN1C(=O)[C@@H]1CCCN1C(=O)[C@H](CCCN=C(N)N)NC(=O)[C@@H]1CCCN1C(=O)[C@H](CCCN=C(N)N)NC(=O)[C@H](CCCN=C(N)N)NC(=O)[C@@H](N)CCCN=C(N)N)C(=O)O` [RRRPRPPYLPRPRPPPFFPPRLPPRI], the minimal inhibitory concentration (MIC) in [23] is 0.4 µM (≈ 1.29 µg/mL); in test [8] it was 1.13 µM (≈ 3.65 µg/mL); in the test on Escherichia coli HB101 it was 1.13 µM (≈ 3.65 µg/mL); in [16], 4.42 µM (≈ 14.3 µg/mL); in test [24], at least 50 µM.
As to `CC(C)[C@H](NC(=O)CNC(=O)[C@@H](N)CC(N)=O)C(=O)N[C@@H](CCC(N)=O)C(=O)N1CCC[C@H]1C(=O)N[C@@H](CCCCN)C(=O)N[C@@H](Cc1ccc(O)cc1)C(=O)N[C@@H](CCCCN)C(=O)N[C@@H](Cc1c[nH]c2ccccc12)C(=O)N[C@@H](Cc1c[nH]c2ccccc12)C(=O)N[C@@H](CCCCN)C(=O)N[C@@H](Cc1c[nH]c2ccccc12)C(=O)N[C@@H](Cc1c[nH]c2ccccc12)C(=O)N[C@@H](CCCCN)C(=O)N[C@@H](CCCCN)C(=O)N[C@@H](Cc1c[nH]c2ccccc12)C(=O)N[C@@H](Cc1c[nH]c2ccccc12)C(N)=O` [NGVQPKYKWWKWWKKWW], the MIC was 4.52 µM (≈ 11 µg/mL) in test [8]; 4.52 µM (≈ 11 µg/mL) in the test with Escherichia coli O157:H7; 37.4 µM (≈ 91 µg/mL) in test [16]; 9.45 µM (≈ 23 µg/mL) in test [25]; 18.9 µM (≈ 46 µg/mL) in test [11]; 9.45 µM (≈ 23 µg/mL) in [20]. Moreover, the MIC against Vibrio cholerae non-O139 and in the test on Vibrio cholerae non-O1 was 4.52 µM (≈ 11 µg/mL) each time.
Take `CC[C@H](C)[C@H](NC(=O)[C@@H]1CCCN1C(=O)[C@H](CCCN=C(N)N)NC(=O)[C@@H]1CCCN1C(=O)CNC(=O)[C@@H]1CCCN1C(=O)[C@H](CCCN=C(N)N)NC(=O)[C@@H]1CCCN1C(=O)[C@H](Cc1ccccc1)NC(=O)[C@@H]1CCCN1C(=O)[C@H](CC(C)C)NC(=O)[C@@H]1CCCN1C(=O)[C@H](CCCN=C(N)N)NC(=O)[C@@H]1CCCN1C(=O)[C@@H](NC(=O)[C@@H]1CCCN1C(=O)[C@H](CCCN=C(N)N)NC(=O)[C@@H]1CCCN1C(=O)CNC(=O)[C@@H]1CCCN1C(=O)[C@H](CCCN=C(N)N)NC(=O)[C@@H]1CCCN1C(=O)[C@H](Cc1ccccc1)NC(=O)[C@@H]1CCCN1C(=O)[C@H](CC(C)C)NC(=O)[C@@H]1CCCN1C(=O)[C@H](CCCN=C(N)N)NC(=O)[C@@H]1CCCN1)[C@@H](C)CC)C(=O)O` [PRPLPFPRPGPRPIPRPLPFPRPGPRPI]: the MIC in [8] is above 128 µM; against Escherichia coli ML-35, at least 128 µM; in [9] it was above 128 µM; in [10], at least 128 µM; in test [11], above 128 µM.
